# Patent publication US20100099719A1, “COMPOSITION AND METHOD FOR TREATING PROTEINURIA” (DIEREPHARMA, INC., priority 2008, published 2010)
# Where two headings read alike, the source gives them in different places.
# Key:
# p38 = experiment: LPS-induced p38 activation in RAW264.7 macrophages (Western blot, phospho-p38); type: cell-based, mouse; details: RAW264.7 cells pretreated 100 and 500 μg/ml, 4 h; LPS 10 ng/ml, 30 min
# Procedure: Mouse macrophage RAW264.7 cells were pretreated with AKF-PD (100 and 500 μg/ml, 4 h) or PFD (100 and 500 μg/ml, 4 h) and then exposed to LPS (10 ng/ml, 30 min). Total cell lysates were processed by SDS-PAGE and membranes blotted with a phosphospecific p38 and normalized with p38.
# The MAPK family of proteins comprises of three-tiered cascades of Erk1/2, p38, and JNK. The p38 kinase is activated by phosphorylation of a conserved Thr-Gly-Tyr motif in the activation loop. The activated p38 is then able to phosphorylate a wide variety of targets in the cytoplasm and nucleus, resulting in cellular responses such as apoptosis, inflammation, and fibrosis. We first analyzed the anti-inflammatory properties of AKF-PD in p38 signaling in lipopolysaccharide (LPS)-stimulated mouse macrophages RAW264.7 cells. Cells are pre-treated with AKF-PD or pirfenidone (PFD) for 4 hours and then stimulated by treatment with LPS. […] No effects on total p38 protein levels were observed showing that AKF-PD and PFD have no effect on protein stability. […] The potential upstream targets for AKF-PD include upstream kinases MAPKK3 (MKK3) and MAPKK6 (MKK6).
# rat UUO model = experiment: Unilateral ureteral obstruction (UUO) model, tubulointerstitial injury score; type: in vivo, SD rats; details: UUO rats; for Tubulointerstitial injury score (TIS): 500 mg/kg/d by gavage
# Procedure: Kidney damage and fibrosis were induced by Unilateral Ureteral Obstruction in rat. The reno-protective effect of AKF-PD was evaluated in the rat UUO model.
# Fixed tissues were dehydrated in graded alcohol and embedded in paraffin. Sections were stained with hematoxylin & eosin (HE) for general histology. Injury score was evaluated. On Day 7, the kidneys of rats subjected to ureteral obstruction developed a conspicuous tubulointerstitial injury characterized by tubular dilatation and atrophy, interstitial inflammation, and a marked interstitial fibrosis. The damage was more prominent on Day 15. Renal injury was ameliorated after treatments with AKF-PD as indicated by the lower tubulointerstitial injury scores and interstitial fibrosis expansion of these groups, with P<0.05 for all comparisons (Table 2).
# Table 2. Comparison of histological scores for interstitial compartment. Eight weeks old male SD rats (180 g ˜220 g) were randomly divided into sham surgical group, disease model UUO group, and AKF-PD (500 mg/kg/d) group. […] The animals of the sham surgical group experienced the same surgical procedure except the ligation step. AKF-PD was administrated by gavage from one day prior to the procedure to 15 days post surgical procedure. Normal saline was administrated in a similar fashion to the rats in the groups of disease model and sham surgical. The animals were sacrificed 15 days after surgical procedure and their left kidney were removed for pathological (HE staining) examination. Histological scoring for interstitial compartment was done according to Radford's method (Predicting renal outcome in IgA nephropathy. J. Am. Soc. Nephrology, 1997; 8:199-207).
# TNF-α = experiment: LPS-stimulated TNF-α protein synthesis and secretion in RAW264.7 cells (ELISA); type: cell-based, mouse; details: LPS 100 ng/ml 8 h; for inhibition at 300 µg/mL: dose of 300 μg/ml
# Procedure: RAW264.7 cells were pre-treated with AKF-PD for 4 hours at the following doses: 0, 30 μg/ml, 100 μg/ml, and 300 μg/ml. Cells were then stimulated by the treatment with LPS at 100 ng/ml for 8 hours. Cell lysate was prepared from the harvested cells. Media from the cell culture were collected, concentrated 10-fold. Both cell lysate (B) and media (A) were subjected to ELISA assay (OptEIA™) specific for mouse TNF-α according to the manufacturer's instructions (BD Biosciences). Each column with error bar represents the average of triplicate TNF-α assay results and the standard deviation (SD). Statistical comparisons for AKF-PD treated cells relative to the controls indicate P<0.001 for secreted levels (A) at all three doses; and P<0.01 for cellular levels (B) at doses of 100 and 300 μg/ml, respectively.
# The effect of AKF-PD on TNF-α protein synthesis and secretion was analyzed in LPS-stimulated RAW264.7 cells. Cells were pretreated with AKF-PD and then stimulated by LPS. Both secreted and cellular levels of TNF-α protein were determined. […] Therefore, the exposure of RAW264.7 cells to AKF-PD exerted a significant and dose-dependent suppression of levels of both cell-associated and secreted TNF-α protein.
# TNF-α mRNA = experiment: LPS-stimulated TNF-α mRNA synthesis in RAW264.7 macrophages (real time PCR); type: cell-based, mouse; details: LPS 10 ng/ml 20 h; for inhibition of LPS-stimulated TNF-α mRNA synthesis: dose of 500 μg/ml; for inhibition on LPS-stimulated TNF-α mRNA synthesis: pre-treated 4 h at 10, 100, 500 μg/ml
# Procedure: Mouse macrophage RAW264.7 cells were pre-treated with AKF-PD or PFD for 4 hours at the following doses: 0, 10 μg/ml, 100 μg/ml, and 500 μg/ml. Cells are then stimulated by treatment with LPS at 10 ng/ml for 20 hours. Expression of TNF-α mRNA is assayed by a quantitative real time PCR analysis using the TaqMan PCR core reagent kit (Applied Biosystems). TNF-α gene expression in the control non-treated cells was taken as 1 and regarded as control. All the other values were expressed as fold increase of the control. The mouse beta actin gene was used as endogenous control. Each column with error bar represents the mean mRNA level±SD of duplicate samples. Statistical comparisons for all three AKF-PD doses relative to control indicate p<0.01; PFD at the doses of 100 and 500 μg/ml relative to control indicate P<0.01.
# We next investigated the effect of AKF-PD on TNF-α transcription.
# rat renal fibroblasts = details: in vitro; cited from earlier work
# TGF-β = TGF-β protein expression in kidney of rat UUO model (Western blot, densitometry); type: in vivo; details: obstructed kidney
# Description: A. Western analysis of TGF-β protein expression. Two rats were sacrificed from groups of control sham operated, UUO, and UUO+AKF-PD at day 7 and day 15. Total protein was extracted from the kidney samples and subjected to Western analysis of TGF-β. The protein loading was normalized with actin. Lane 1, control sham at day 7; lane 2, control sham at day 15; lane 3, UUO at day 7; lane 4, UUO+AKF-PD at day 7; lane 5, UUO at day 15; lane 6, UUO+AKF-PD at day 15. B. Comparison of the intensity of bands on a Western blot by densitometry. The bands were scanned by densitometer and expressed as a fold increase over control sham operated rat at day 7, which was taken as 1.
# TGF-β is a pro inflammatory cytokine and its overproduction plays critical role in tissue fibrosis. Using UUO model, we analyzed the effect of AKF-PD on TGF-β protein expression by Western blot. […] Densitometry analyses of the intensity of the bands indicate that TGF-β protein expression in obstructed kidneys was increased by 4.9- and 6.5-fold than those in the Sham group on Days 7 and 15, respectively.
# [1] = system: streptozotocin-induced diabetic rats; experiment: Streptozotocin-induced diabetic nephropathy in rats; type: in vivo, Sprague-Dawley rats
# Procedure: Diabetic kidney disease in the rat was induced by streptozotocin (STZ) to test the effectiveness of 5-methyl-2(1H)-pyridone (AKF-PD) in preserving kidney function by reducing the level of proteinuria.
# Diabetic nephropathy was induced in Sprague-Dawley rats with a single intravenous injection of STZ (45 mg/kg). Streptozotocin was injected in a single dose of 45 mg/kg, i.v., to rats (Male Sprague-Dawley rats (200-250 g). Age-matched control rats received citrate buffer and were used in parallel with diabetic animals. Two days after STZ injection, plasma glucose levels were measured. Rats having plasma glucose levels>250 mg/dL after 4 weeks were selected for the study. Control and diabetic rats were divided into two groups, consisting of 6 animals each. AKF-PD was suspended in 0.5% sodium carboxy methylcellulose (CMC). From 4 to 8 weeks after the initial STZ injection, the first group of control animals received vehicle, and the second group received a suspension of AKF-PD (500 mg/kg per day) orally. Similarly, one group of diabetic rats received vehicle and the second group received AKF-PD (500 mg/kg per day). At the end of 8th week, rats were kept individually in metabolic cages for 24 h to collect urine for the measurements. Renal function was assessed by measuring plasma and urine levels of creatinine and urea and urine albumin excretion. Plasma glucose levels were also measured at 4 weeks and at the end of the experiment to investigate the effect of AKF-PD on glucose levels. Urinary proteins were measured by Bio-Rad protein assay (Bio-Rad, Hercules, Calif.). Blood urea nitrogen and creatinine levels were measured using Beckman analyzers (BUN Analyzer II, and Creatinine Analyzer II Beckman Instruments Inc., Brea, Calif.).
# [2] = system: mild chronic anti-GBM nephritis in rats; details: rat model of nephritis; cited from earlier work
# [3] = system: patients with focal segmental glomerulosclerosis; details: cited from earlier work
# [4] = DN (diabetic) rats + AKF-PD 500 mg/kg per day p.o., 4 weeks, mean ± SEM (n = 6)
structure (smiles),measurement,setting,value
"Cc1ccc(=O)n(-c2cccc(F)c2)c1 [AKF-PD, 1-(3′-Fluorophenyl)-5-Methyl-2(1H)-Pyridone]",LPS-induced p38 activation (phosphorylation),p38,significantly blocked
same,total p38 protein levels,p38,No effects
same,Tubulointerstitial injury score (TIS),rat UUO model; Day 7,2.64 ± 0.79 #
same,Tubulointerstitial injury score (TIS),rat UUO model; Day 15,3.82 ± 0.43 #
same,renal injury (tubulointerstitial injury scores and interstitial fibrosis expansion),rat UUO model; P<0.05,ameliorated
same,inhibition on TNF-α protein levels,"TNF-α; 30, 100, 300 μg/ml pre-treatment 4 h",dose-dependent inhibition
same,inhibition at 100 µg/mL,"TNF-α; Mus musculus, dose of 100 μg/ml, read-out: inhibition of secreted levels of TNF-α",64%
same,inhibition at 300 µg/mL,"TNF-α; Mus musculus, read-out: inhibition of cellular levels of TNF-α",~50%
same,inhibition at 300 µg/mL,"TNF-α; Mus musculus, read-out: inhibition of secreted levels of TNF-α",89%
same,inhibition of LPS-stimulated TNF-α mRNA synthesis,TNF-α mRNA,Approximately 50%
same,inhibition on LPS-stimulated TNF-α mRNA synthesis,TNF-α mRNA,dose-dependent inhibition
same,proliferation of rat renal fibroblasts,rat renal fibroblasts,inhibit the proliferation
same,reduction of TGF-β protein expression,"TGF-β; Day 7, UUO rats",55%
same,reduction of TGF-β protein expression,"TGF-β; Day 15, UUO rats",71%
same,Urine output,"[1]; DN (diabetic) rats + AKF-PD 500 mg/kg per day p.o., 4 weeks, 24 h urine, mean ± SEM (n = 6)",15.25 ± 1.75 mL
same,Blood urea nitrogen,[1]; [4],18.88 ± 1.50 mg/dL
same,Serum creatinine,[1]; [4],0.75 ± 0.13 mg/dL
same,Urinary albumin excretion,[1]; [4],6.10 ± 0.23 mg/dL
same,renal dysfunction in diabetic rats,"[1]; diabetic rats, 500 mg/kg per day from 4 to 8 weeks",significantly attenuated
"Cc1ccc(=O)n(-c2ccccc2)c1 [PFD, pirfenidone, reference compound]",LPS-induced p38 activation (phosphorylation),p38,significantly blocked
same,total p38 protein levels,p38,No effects
same,urinary protein excretion,[2],caused a decline
same,effect on proteinuria,"[3]; clinical data, open-label trial",does not have any effect
same,monthly deterioration in GFR (median),"[3]; with pirfenidone therapy, 18 patients, median of 13-month treatment, baseline period −0.61",−0.45 ml/min per 1.73 m^2
same,inhibition of LPS-stimulated TNF-α mRNA synthesis,TNF-α mRNA,Approximately 50%
same,inhibition on LPS-stimulated TNF-α mRNA synthesis,TNF-α mRNA,dose-dependent inhibition
